Article PMC3057995, “Potent Anti-Tumor Effect Generated by a Novel Human Papillomavirus (HPV) Antagonist Peptide Reactivating the pRb/E2F Pathway” (PLoS ONE, 2011)
“Also recorded” adds a separate entry of the source.

Assays:
[1] = system: NIH/3T3 embryonic fibroblast cells; assay: MTT cell viability assay, NIH 3T3; type: cell-based, mouse; conditions: NIH 3T3, HPV-negative; data not shown
Text: HPV16-positive SiHa and CaSki cervical carcinoma cells were supplied by China Center for Type Culture Collection (CCTCC). The following cell lines used in this project were from our laboratory: HPV18-positive HeLa cervical carcinoma cells, CNE nasopharyngeal carcinoma cells, HaCat human keratinocyte cells, COS7 (African green monkey SV40-transformed kidney fibroblast cell line), 293T (human kidney epithelial cells), and NIH/3T3 mouse embryonic fibroblast cells. All cells were maintained in a humidified atmosphere of 5% CO2, Dulbecco's modified Eagle's medium (DMEM, pH 7.2), supplemented with 10% fetal calf serum (FCS).
Cell viability was determined with an MTT assay. Briefly, the cells were seeded into 96-well plates at a density of 4–5×10^3 cells/well. The cells were allowed to recover for 24 h before the medium was replaced with DMEM supplemented with peptides at different concentrations. The solvent of the peptides was set as the control. The peptide-supplemented medium was replaced daily and the respective concentrations were maintained. The cells were subjected to an MTT cell proliferation assay at different time points. The plates were incubated at 37°C for 3 h with the addition of 20 µl/well MTT (5 mg/ml). Untransformed MTT in the solution was removed by aspiration. […] The optical density of the formazan solutions was measured by microplate reader at 540 nm.

[2] = system: pRb; assay: Immunohistochemistry of tumor tissues, pRb; type: in vivo, mouse (Balb/C-nu/nu); conditions: 400 µg/mouse group vs control
Experimental: Three or two mice bearing tumor of each group were prelabeled with intra-peritoneal injection of BrdU (100 mg/kg, Sigma-Aldrich, Inc., Aaint Louis, MO, USA) 15 hours before sacrificed. Tumor specimens were then prepared as formalin-fixed, paraffin-embedded sections for hematoxylin-eosin staining, BrdU and pRb immunohistochemical staining as previously described, [57]. In brief, immunostaining was performed on formalin-fixed, paraffin-embedded sections using the anti-pRb monoclonal and anti- BrdU monoclonal antibodies, respectively. Before the application of the primary antibodies, an antigen retrieval technique was performed. […] The antibodies were detected by means of the Strept Avidin-Biotin Complex (SABC) method (Wuhan Boster Biological Technology, Ltd., Wuhan, P.R. China.) according to the manufacturer's instructions. Stained slides were examined under a Nikon ECLIPSE TE2000-U microscope (Nikon Corporation, Tokyo, Japan) and images were collected and analyzed with Pixera Penguin 600CL DiRactor™ (Pixera Corporation, Los Gatos, CA, USA). BrdU or pRb-positive cells were counted in each section. The total cell number was determined by nuclear staining with hematoxylin. At least 1000 total cells for each case were counted.

[3] = system: HPV16E7/pRb interaction; assay: Co-IP of HPV16 E7 and pRb in Cos7 cells; type: cell-based; conditions: Cos7 co-transfected, 80 µM Pep-7
Experimental: For Co-IP, Cos-7 cells seeded in 100 mm plates were co-transfected with HPV16E7-pEYFP-N1 and pRb-pcDNA3.1 using the PEI reagent (Sigma-aldich Chemie GmbH, Steinheim, Germany) described previously. […] Lysate supernate prepared as above were incubated with 10 µl rabbit anti-pRb antibody or mouse anti-flag (negative control) antibody and washed protein G agarose beads (Amersham Biosciences, Little Chalfont, UK) overnight at 4°C under continuous agitation. Beads were subsequently washed four times with the lysis buffer. Bound proteins were eluted by boiling in a Laemmli sample buffer and subjected to western blot assay.

[4] = system: HPV18 E7; assay: Competitive ELISA with HPV18 E7 anti-serum; type: binding; conditions: peptides 0.08 µM to 800 µM vs HPV18 E7 anti-serum; mean ± SE, three independent experiments
[5] = system: CaSki cells; assay: Clonogenic assay, CaSki; type: cell-based; conditions: 14 days
Experimental: Cells were seeded in DMEM at 1×10^3 cells/well density in 12-well plates and allowed to attach to the substrate overnight. Thereafter, cells were treated with 0 µM, 16 µM, 32 µM, 80 µM, and 160 µM peptide in DMEM, and the medium was changed every three days. The plates were observed daily for colony formation. After 8 (for HeLa cells) or 14 (for SiHa and CaSki cells) days of treatment, the cultures were washed three times with PBS and stained with crystal violet in ethanol for 15 min. The colonies were then counted and photographed with the Alphalmager® EP image acquisition system (Alpha Innotech, Santa Clara, CA, USA).

[6] = system: HPV16E7/pRb interaction; assay: His-pull down of pRb by His-HPV16E7; type: binding; conditions: 293T cell lysate (300 µg total proteins), 10 µl 8 mmol/L Pep-7, overnight 4°C
Experimental: For pull-down analysis, the purified His-HPV E7 protein (200 µg/ml×50 µl) was preincubated with 100 µl His-band Resin (Amersham Biosciences, Little Chalfont, UK) for 4 h at 4°C. The beads were then washed four times with lysis buffer and divided into two equal portions. […] The mixtures were incubated overnight at 4°C under continuous agitation. Beads were subsequently washed four times with a lysis buffer. Bound proteins were eluted by boiling in Laemmli sample buffer and analyzed by Western blot.

[7] = system: HeLa cells; assay: MTT cell viability assay, HeLa; type: cell-based; conditions: HPV18-positive, A540
Experimental: Cell viability was determined with an MTT assay. Briefly, the cells were seeded into 96-well plates at a density of 4–5×10^3 cells/well. The cells were allowed to recover for 24 h before the medium was replaced with DMEM supplemented with peptides at different concentrations. The solvent of the peptides was set as the control. The peptide-supplemented medium was replaced daily and the respective concentrations were maintained. The cells were subjected to an MTT cell proliferation assay at different time points. The plates were incubated at 37°C for 3 h with the addition of 20 µl/well MTT (5 mg/ml). Untransformed MTT in the solution was removed by aspiration. The formazan product was dissolved in DMSO, and plates were shaken vigorously at room temperature for 10–15 min to ensure complete solubilization. The optical density of the formazan solutions was measured by microplate reader at 540 nm.

[8] = system: SiHa cells; assay: PI staining cell cycle analysis by flow cytometry; type: cell-based; conditions: for percentage of cells in S-phase: control 25.96%
Experimental: Cell cycle distribution was determined by flow cytometry DNA analysis. […] After 24 h, cells were harvested and counterstained with PI (Invitrogen, Carlsbad, CA, USA) for flow cytometry according to the manufacturer's instructions. Briefly, cells were trypsinized and resuspended in 1 ml PBS. Cell suspension was dropped slowly into 4 ml anhydrous ethanol pre-cooled at −20°C and mixed. After standing at −20°C for more than 15 min, the ethanol was removed by centrifugation, after which 5 ml PBS was added and mixed, and cells were re-hydrated at room temperature for 15 min. PBS was then removed by centrifugation. Cells were stained with 2 µg/ml propidium iodide in 1 ml dilution buffer (100 mmol/L Tris, pH 7.4, 150 mmol/L NaCl, 1 mmol/L CaCl2, 0.5 mmol/L MgCl2, 0.1% Nonidet P-40, 100 µg/ml RNAase) at room temperature for 15 min and subjected to flow cytometry analysis. Analysis was performed on an Epics-XL flow cytometer (Beckman Coulter, Inc. CA, USA) with Modfit 3.0 software (Verity Software House, Topsham, ME, USA).

SACPKGLDWCGG (C&C bridged by disulfide bonds) (disulfide) [Pep-7]
cell proliferation (MTT) [1]: negligible effect | pRb protein level in tumor tissue [2]: increased | co-immunoprecipitation of HPV16E7 with pRb [3]: HPV16E7 could not be immunoprecipitated by the pRb antibodies | binding to HPV18 E7 [4]: did not bind to HPV18 E7 | colony formation ([5]; 16-160 µM): inhibited | concentration up to which colony number difference vs control became significant (p<0.02) ([5]; vs 0 µM group, three independent experiments): 32 µM | pull-down of pRb by His-HPV16E7 [6]: could not pull down pRb from 293T cell lysates with Pep-7 present | cell proliferation (MTT) [7]: could not repress the proliferation of HeLa cells | percentage of cells in S-phase ([8]; 32 µM Pep-7, 24 h): 14.75% | percentage of cells in S-phase ([8]; 80 µM Pep-7, 24 h): 8.75% | G1-to-S phase transition ([8]; 24 h, 32 and 80 µM, p<0.02): inhibited G1-to-S phase transition of SiHa cells significantly; also recorded: induced G1 arrest in SiHa cells
